These results are taken from patent US20260201008A1, “SECRETIN-DERIVED GLP1R SELECTIVE AGONISTS” (GUBRA A/S, priority 2023, published 2026).

pEC50: −log10 of the molar value. Where two headings read alike, the source gives them in different places. Numbered stars: 1 amine (or outer) side, 2 acyl side, 3 side chain; on linkers, the order of the positions; unused ones are H or OH. Square brackets hold non-standard residues; d marks the D form. Side chains are listed from the residue outwards. Peptide text beside a SMILES is read from it. * marks the point of attachment. C20 diacid = O=C(O)CCCCCCCCCCCCCCCCCCC(=O)*; γGlu = O=C(O)[C@H](CCC(=O)[*:2])N[*:1]; AEEA = NCCOCCOCC(=O)O; Aib = CC(C)(N)C(=O)O

The nature of series [1]: Turbidity of crude library peptides (absorbance at 600 nm). Format: physicochemical. As to conditions: Physical stability of peptides. Put shortly:
(§1)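 Values reflect mean ThT emission (ex 450, em 480 nm) over 72 h at 40° C, read every 10 min after 5 min shaking at 700 rpm, plus a single initial absorbance at 600 nm for turbidity. Peptides were at 267 μM, pH 4.0 acetate or pH 7.0 phosphate (50 mM), with 4 μM ThT.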

Series [2] is described as follows: Fibril formation of crude library peptides (Thioflavin T). Format: physicochemical. On the set-up: key: average ThT fluorescence emission at 480 nm (ex 450 nm), raw units. Particulars: Physical stability of peptides. Put shortly:
as §1

The next series concerns the target GLP1R (Homo sapiens, UniProt P43220). Description: hGLP1R potency, cAMP accumulation in CHO-K1 cells stably overexpressing hGLP1R. Format: cell-based. Also noted: host or cells: CHO-K1. Particulars: for Selectivity: SCTR EC50/GLP1R EC50 ratio; for EC50: cAMP accumulation, CHO-K1 cells overexpressing hGLP1R; for SCTR EC50/GLP1R EC50 ratio: selectivity for hGLP1R over hSCTR, cAMP accumulation in CHO-K1 cells. Put shortly:
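Cells were plated in DPBS with 0.05% casein and 0.5 mM IBMX, then stimulated for 30 min at room temperature with test compound. cAMP was read by TR-FRET after one hour. EC50 came from variable-slope sigmoid nonlinear regression; purified peptides ran as 11-point 3-fold series, n=2.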
Background: Changes in cAMP serve as a functional read-out for many G protein-coupled receptors.

For another series, the target named is SCTR (Homo sapiens, UniProt P47872). Description: hSCTR potency, cAMP accumulation in CHO-K1 cells stably overexpressing hSCTR. The format is cell-based. Also noted: alternatively Euroscreen ES-712-AF; FAST-0161L; host or cells: CHO-K1. As to conditions: for EC50: cAMP accumulation, CHO-K1 cells overexpressing hSCTR. Put shortly: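 Division-arrested CHO-K1 cells stably expressing hSCTR were plated in DPBS with 0.05% casein and 0.5 mM IBMX, then stimulated with test peptide for 30 min at room temperature. cAMP was read by HTRF after one hour. EC50 came from variable-slope sigmoidal nonlinear regression.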

The mark [3] stands for this setting: read-out: hGLP1R pEC50 (converted).
Where [4] appears, read: read-out: hSCTR pEC50 (converted).

Usually pEC50 stands for the negative decadic logarithm of the EC50, by convention in mol/L.

GLP1R, sequence (P43220 24-463): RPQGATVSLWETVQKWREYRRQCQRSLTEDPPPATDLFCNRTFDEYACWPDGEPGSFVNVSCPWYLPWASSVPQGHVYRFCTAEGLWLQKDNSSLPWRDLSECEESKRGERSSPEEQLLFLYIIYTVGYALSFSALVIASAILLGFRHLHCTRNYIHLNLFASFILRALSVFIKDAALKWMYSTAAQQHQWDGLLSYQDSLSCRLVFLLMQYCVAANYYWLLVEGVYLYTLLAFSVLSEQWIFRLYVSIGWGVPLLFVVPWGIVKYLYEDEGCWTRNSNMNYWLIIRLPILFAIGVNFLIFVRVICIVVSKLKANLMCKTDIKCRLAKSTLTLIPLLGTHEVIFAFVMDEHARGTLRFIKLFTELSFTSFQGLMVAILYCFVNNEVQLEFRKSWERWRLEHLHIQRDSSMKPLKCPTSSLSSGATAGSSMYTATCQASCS
SCTR, sequence (P47872 23-440): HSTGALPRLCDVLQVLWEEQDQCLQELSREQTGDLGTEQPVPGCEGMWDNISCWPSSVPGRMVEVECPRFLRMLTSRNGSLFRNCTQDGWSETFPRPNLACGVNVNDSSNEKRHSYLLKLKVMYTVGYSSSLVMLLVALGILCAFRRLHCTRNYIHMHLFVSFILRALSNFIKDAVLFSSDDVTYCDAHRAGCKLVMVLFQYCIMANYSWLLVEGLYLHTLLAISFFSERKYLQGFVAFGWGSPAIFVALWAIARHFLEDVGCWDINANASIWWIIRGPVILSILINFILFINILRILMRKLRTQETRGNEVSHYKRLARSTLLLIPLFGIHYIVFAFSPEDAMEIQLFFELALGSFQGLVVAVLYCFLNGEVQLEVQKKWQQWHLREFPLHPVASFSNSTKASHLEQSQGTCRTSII

For the molecule `CC(C)C[C@H](NC(=O)[C@H](Cc1ccccc1)NC(=O)[C@H](CCCNC(=N)N)NC(=O)[C@H](CCC(N)=O)NC(=O)[C@@H](NC(=O)[C@H](C)NC(=O)[C@H](C)NC(=O)[C@@H](NC(=O)[C@H](CCC(=O)O)NC(=O)[C@H](CCCCNC(=O)COCCOCCNC(=O)COCCOCCNC(=O)CC[C@H](NC(=O)CCCCCCCCCCCCCCCCCCC(=O)O)C(=O)O)NC(=O)[C@H](CC(C)C)NC(=O)[C@H](Cc1ccc(O)cc1)NC(=O)[C@H](CO)NC(=O)[C@@H](NC(=O)[C@H](CC(=O)O)NC(=O)[C@H](CO)NC(=O)[C@@H](NC(=O)[C@H](Cc1ccccc1)NC(=O)[C@@H](NC(=O)CNC(=O)[C@H](CCC(=O)O)NC(=O)C(C)(C)NC(=O)[C@@H](N)Cc1c[nH]cn1)[C@@H](C)O)[C@@H](C)O)C(C)C)[C@@H](C)O)[C@@H](C)O)C(=O)N[C@@H](CCC(=O)O)C(=O)N[C@@H](Cc1c[nH]cn1)C(=O)N[C@@H](CC(C)C)C(=O)N[C@H](C(N)=O)C(C)C` [compound 4] (H-H[Aib]EGTFTSDVSYLK([AEEA-AEEA-γGlu-C20 diacid])ETAATQRFLEHLV-NH2), the “Turbidity (pH 7)” value in series [1] came to 0.08. Besides, the Fibril formation in series [2] is recorded as 32222. Also, at GLP1R, the negative logarithm of the EC50 (pEC50) is 11.10 and the Selectivity is recorded as 13928. The molecule further had a negative logarithm of the EC50 (pEC50) on SCTR of 7.00.

Turning to `CC(C)C[C@H](NC(=O)[C@H](CCC(=O)O)NC(=O)[C@H](CCCCNC(=O)COCCOCCNC(=O)COCCOCCNC(=O)CC[C@H](NC(=O)CCCCCCCCCCCCCCCCCCC(=O)O)C(=O)O)NC(=O)[C@H](CC(C)C)NC(=O)[C@H](CCCNC(=N)N)NC(=O)[C@H](CO)NC(=O)[C@@H](NC(=O)[C@H](CC(=O)O)NC(=O)[C@H](CO)NC(=O)[C@@H](NC(=O)[C@H](Cc1ccccc1)NC(=O)[C@@H](NC(=O)CNC(=O)[C@H](CCC(=O)O)NC(=O)C(C)(C)NC(=O)[C@@H](N)Cc1c[nH]cn1)[C@@H](C)O)[C@@H](C)O)C(C)C)C(=O)N[C@@H](C)C(=O)N[C@@H](C)C(=O)NC(C)(C)C(=O)N[C@@H](CCC(N)=O)C(=O)N[C@@H](CCCNC(=N)N)C(=O)N[C@@H](Cc1ccccc1)C(=O)N[C@@H](CC(C)C)C(=O)N[C@@H](CCC(=O)O)C(=O)N[C@@H](Cc1c[nH]cn1)C(=O)N[C@@H](CC(C)C)C(=O)N[C@H](C(N)=O)C(C)C` [compound 10] (H-H[Aib]EGTFTSDVSRLK([AEEA-AEEA-γGlu-C20 diacid])ELAA[Aib]QRFLEHLV-NH2), the “Turbidity (pH 7)” value in series [1] was 0.08. For the same molecule, the Fibril formation in series [2] is 6765. Besides, the Selectivity at GLP1R is 2365. Besides, the EC50 on GLP1R (read-out: pEC50 hGLPR1 (converted)) is 0.2 nM; at SCTR (read-out: pEC50 hSCTR (converted)) it was 501 nM.

For the molecule `CC(C)C[C@H](NC(=O)[C@H](Cc1ccccc1)NC(=O)[C@H](CCCNC(=N)N)NC(=O)[C@H](CCC(N)=O)NC(=O)[C@H](CO)NC(=O)[C@H](C)NC(=O)[C@H](C)NC(=O)[C@H](Cc1ccccc1)NC(=O)[C@H](CCC(=O)O)NC(=O)[C@H](CCCCNC(=O)COCCOCCNC(=O)COCCOCCNC(=O)CC[C@H](NC(=O)CCCCCCCCCCCCCCCCCCC(=O)O)C(=O)O)NC(=O)[C@H](CC(C)C)NC(=O)[C@H](Cc1ccccc1)NC(=O)[C@H](CO)NC(=O)[C@@H](NC(=O)[C@H](CC(=O)O)NC(=O)[C@H](CO)NC(=O)[C@@H](NC(=O)[C@H](Cc1ccccc1)NC(=O)[C@@H](NC(=O)CNC(=O)[C@H](CCC(=O)O)NC(=O)C(C)(C)NC(=O)[C@@H](N)Cc1c[nH]cn1)[C@@H](C)O)[C@@H](C)O)C(C)C)C(=O)N[C@@H](CCC(=O)O)C(=O)N[C@@H](Cc1c[nH]cn1)C(=O)N[C@@H](CC(C)C)C(=O)N[C@H](C(N)=O)C(C)C` [compound 91] (H-H[Aib]EGTFTSDVSFLK([AEEA-AEEA-γGlu-C20 diacid])EFAASQRFLEHLV-NH2), the “Turbidity (pH 7)” value in series [1] was determined as 0.42. The Fibril formation in series [2] is on record as 260000. The EC50 at GLP1R (setting [3]) was 0.316 nM; on SCTR (setting [4]), 31600 nM. In addition, the “SCTR EC50/GLP1R EC50 ratio” value at GLP1R stood at 101438.

For the molecule `CC(C)C[C@H](NC(=O)[C@H](Cc1ccccc1)NC(=O)[C@H](CCCNC(=N)N)NC(=O)[C@H](CCC(N)=O)NC(=O)[C@H](C)NC(=O)[C@H](C)NC(=O)[C@H](C)NC(=O)[C@H](CCC(=O)O)NC(=O)[C@H](CCC(=O)O)NC(=O)[C@H](CCCCNC(=O)COCCOCCNC(=O)COCCOCCNC(=O)CC[C@H](NC(=O)CCCCCCCCCCCCCCCCCCC(=O)O)C(=O)O)NC(=O)[C@H](CC(C)C)NC(=O)[C@@H](NC(=O)[C@H](CO)NC(=O)[C@@H](NC(=O)[C@H](CC(=O)O)NC(=O)[C@H](CO)NC(=O)[C@@H](NC(=O)[C@H](Cc1ccccc1)NC(=O)[C@@H](NC(=O)CNC(=O)[C@H](CCC(=O)O)NC(=O)C(C)(C)NC(=O)[C@@H](N)Cc1c[nH]cn1)[C@@H](C)O)[C@@H](C)O)C(C)C)[C@@H](C)O)C(=O)N[C@@H](CCC(=O)O)C(=O)N[C@@H](Cc1c[nH]cn1)C(=O)N[C@@H](CC(C)C)C(=O)N[C@H](C(N)=O)C(C)C` [compound 96] (H-H[Aib]EGTFTSDVSTLK([AEEA-AEEA-γGlu-C20 diacid])EEAAAQRFLEHLV-NH2), the “Turbidity (pH 7)” value in series [1] is 0.09. The Fibril formation in series [2] is 8019. Further, the EC50 at GLP1R (setting [3]) was 0.0126 nM; at SCTR (setting [4]) it was 398 nM. Moreover, the “SCTR EC50/GLP1R EC50 ratio” value at GLP1R came to 31579.

In the case of `CC(C)C[C@H](NC(=O)[C@H](Cc1ccccc1)NC(=O)[C@H](CCCNC(=N)N)NC(=O)[C@H](CCC(N)=O)NC(=O)[C@H](CC(C)C)NC(=O)C(C)(C)NC(=O)[C@H](C)NC(=O)[C@H](CCC(=O)O)NC(=O)[C@H](CCC(=O)O)NC(=O)[C@H](CCCCNC(=O)COCCOCCNC(=O)COCCOCCNC(=O)CC[C@H](NC(=O)CCCCCCCCCCCCCCCCCCC(=O)O)C(=O)O)NC(=O)[C@H](CC(C)C)NC(=O)[C@@H]1CCCN1C(=O)[C@H](CO)NC(=O)[C@@H](NC(=O)[C@H](CC(=O)O)NC(=O)[C@H](CO)NC(=O)[C@@H](NC(=O)[C@H](Cc1ccccc1)NC(=O)[C@@H](NC(=O)CNC(=O)[C@H](CCC(=O)O)NC(=O)C(C)(C)NC(=O)[C@@H](N)Cc1c[nH]cn1)[C@@H](C)O)[C@@H](C)O)C(C)C)C(=O)N[C@@H](CCC(=O)O)C(=O)N[C@@H](Cc1c[nH]cn1)C(=O)N[C@@H](CC(C)C)C(=O)N[C@H](C(N)=O)C(C)C` [compound 140] (H-H[Aib]EGTFTSDVSPLK([AEEA-AEEA-γGlu-C20 diacid])EEA[Aib]LQRFLEHLV-NH2), in series [1], the “Turbidity (pH 7)” value turned out to be 0.08. The same molecule registered a Fibril formation in series [2] of 2733. Besides, the EC50 is 1.26 nM on GLP1R (setting [3]) and 20000 nM on SCTR (setting [4]). In addition, the “SCTR EC50/GLP1R EC50 ratio” value at GLP1R came to 14381.
